Here are results for 20 compounds from PMC8151276, “An Integrated Approach toward NanoBRET Tracers for Analysis of GPCR Ligand Engagement” (Molecules, 2021).

The test deals with T1, ADRA1A (Homo sapiens, UniProt P35348).
T1 construct: purchased Promega (in-house HiBiT-GPCR construct library, NanoBRET)
T1 sequence (P35348 1-466): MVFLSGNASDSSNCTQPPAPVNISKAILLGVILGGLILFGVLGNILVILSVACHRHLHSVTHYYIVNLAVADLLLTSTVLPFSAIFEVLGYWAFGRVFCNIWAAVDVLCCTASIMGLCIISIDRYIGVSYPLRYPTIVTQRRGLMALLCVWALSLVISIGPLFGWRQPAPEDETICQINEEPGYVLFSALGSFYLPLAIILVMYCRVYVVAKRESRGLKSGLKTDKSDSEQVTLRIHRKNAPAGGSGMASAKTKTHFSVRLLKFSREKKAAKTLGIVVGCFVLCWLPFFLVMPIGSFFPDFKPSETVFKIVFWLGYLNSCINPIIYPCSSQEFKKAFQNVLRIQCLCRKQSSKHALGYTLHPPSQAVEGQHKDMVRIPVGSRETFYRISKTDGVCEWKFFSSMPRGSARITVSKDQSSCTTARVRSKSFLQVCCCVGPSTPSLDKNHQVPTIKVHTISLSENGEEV
Put plainly: NanoBRET screen HiBiT-ADRA1A in HEK293. It counts as binding. On the procedure:
Each tracer candidate was screened across the entire library of HiBiT-GPCR constructs using NanoBRET as the detection modality. As depicted in Figure 4A, the specificity of interactions was evaluated through decrease in BRET due to competitive displacement of a bound tracer by excess parental compound. Each tracer was analyzed for binding to each HiBiT-GPCR fusion in the absence and in the presence of competing parental compound. Briefly, HEK293 cells were transfected with HiBiT-GPCR constructs diluted into promoterless DNA to reduce expression and maximize translocation to the cell surface. Each tracer candidate was then screened at concentrations of 1 μM and 0.1 μM across cells expressing these fusions. Cells were treated for 1.5 h with tracer either alone or in the presence of 20 μM competing parental compound (i.e., control). BRET was measured upon addition of purified LgBiT and subsequent complementation with HiBiT genetically fused to a GPCR. The specificity of interactions was assessed through a decrease in BRET signal due to competitive displacement of the bound tracer. To further gauge the robustness of these interactions, the fold response over the control (i.e., BRETtracer/BRETcontrol) was calculated. We chose a 1.5-fold response, which translates to ≥7-fold signal over noise as the minimal threshold required to score an interaction as positive.
HiBiT-GPCR DNA constructs were diluted in 10 mM Tris pH 8 to a final concentration of 0.01 μg/μL, arrayed in 96-well plates and stored at −20 °C. For transfection, HEK293 cells were suspended in Opti-MEM (without phenol red) supplemented with 2% fetal bovine serum (Seradigm) and 100 units/mL penicillin–streptomycin (Gibco) at a final concentration of 220,000 cells/mL and dispensed into white 96-well plates at 90 μL/well. Subsequent transfections and screens were carried using an Agilent Bravo Automated Liquid Handling Platform. First, the 96-well HiBiT DNA arrays were diluted 25-fold in Opti-MEM (without serum or phenol red) to a final concentration of 0.0004 μg/μL and 20 μL of the diluted DNAs were transferred into new 96-well plates. Next, promoterless carrier DNA (1 μg/μL) was diluted 25-fold (0.04 μg/μL) and then dispensed into the diluted arrays at 20 μL/well. Following brief mixing, Viafect transfection reagent (Promega) diluted 16-fold into Opti-MEM was dispensed into the plates at 40 μL/well. After mixing by pipetting, plates were incubated for 10 min on the pipetting station deck. The DNA-transfection reagent complexes were then added to plates containing cells. To facilitate the screen, 10 μL of DNA-transfection reagent complexes were added in duplicates to the top 4 and bottom 4 rows, resulting in two identical 48-well arrays per plate. Plates with transfected cells were incubated for 18–20 h at 37 °C/5% CO2. A screen of each tracer across the entire library using two different concentrations requires duplicate plates of transfected cells. Depending on the number of tracers being screened, transfections can be scaled up using the same ratios. The next day, for each tracer, four 20× screening solutions in tracer dilution buffer (Promega) were prepared: two duplicates at final concentration of 20 μM and two duplicates at a final concentration of 2 μM. […] The four resulting solutions were diluted 4-fold in Opti-MEM without serum or phenol red to generate 5× solutions (5 µM and 0.5 µM tracer +/− 100 μM competing compound). To screen the library, a BioTek MultiFlo FX liquid dispenser was used to dispense 22.5 µL of tracer solution to the top 4 rows and 22.5 µL tracer + competing compound solution to the 4 bottom rows. Plates were briefly mixed on an orbital shaker and incubated for 1.5 h at room temperature. […] Plates were briefly mixed on an orbital shaker and incubated for 15 min to allow complementation.
Background: BRET reads energy transfer from a luciferase to a nearby fluorophore.

In the case of `COc1ccc2c(n1)c(CCNC(C)=O)cn2CCNC(=O)CCc1ccc2n1[B-](F)(F)[N+]1=C(c3ccc[nH]3)C=CC1=C2` [Azamelatonin-1-NB590], the “NanoBRET Fold Response” value (0.1μM tracer) was determined as 0.96 and the “NanoBRET Fold Response” value (1μM tracer) is 0.95.
As for `CC(C)N(CC[C@H](c1ccccc1)c1cc(CCNC(=O)c2ccc(CNC(=O)CCc3ccc4n3[B-](F)(F)[N+]3=C(c5ccc[nH]5)C=CC3=C4)cc2)ccc1O)C(C)C` [Tolterodine-BZ-NB590], the “NanoBRET Fold Response” value by setting is: (ADRA1A, tracer 0.1μM) 1.56; (ADRA1A, tracer 1μM) 2.17.
For `O=C(CCc1ccc2n1[B-](F)(F)[N+]1=C(c3ccc[nH]3)C=CC1=C2)NCCOCCOCCNC(=O)OCCOCCN1CCN(C2=Nc3ccccc3Sc3ccccc32)CC1` [Quetiapine-a-2-NB590] the same measures were 3.24 and 3.51.
For `Cc1cc2c(s1)Nc1ccccc1N=C2N1CCN(CCCNC(=O)CCOCCOCCOCCOCCNC(=O)CCc2ccc3n2[B-](F)(F)[N+]2=C(c4ccc[nH]4)C=CC2=C3)CC1` [Olanzapine-a-2-NB590] the same measures were 2.86 and 3.58.
Take `O=C(CCc1ccc2n1[B-](F)(F)[N+]1=C(c3ccc[nH]3)C=CC1=C2)NCc1ccc(C(=O)NCCOCCOCCNCC(O)COc2cccc3ccccc23)cc1` (stereo not drawn) [Propranolol-3-NB590]: the “NanoBRET Fold Response” value is listed as 1.53 (ADRA1A, 0.1μM) and 1.47 (ADRA1A, 1μM).
`N#CN/C(=N\CCNC(=O)c1ccc(N)cc1)NCCCOc1cccc(CN2CCCCC2)c1` [Aminopotentidine (unmodified)]: the “NanoBRET Fold Response” value is, setting by setting: (ADRA1A, other tracers/Aminopotentidine (unmodified), 0.1μM) 1.03; (ADRA1A, other tracers/Aminopotentidine (unmodified), 1μM) 1.07.
For the compound `O=C(CCc1ccc2n1[B-](F)(F)[N+]1=C(c3ccc[nH]3)C=CC1=C2)NCc1ccc(C(=O)NCCOCCC(=O)N[C@@H]2CC[C@@]3(O)[C@H]4Cc5ccc(O)c6c5[C@@]3(CCN4CC3CC3)[C@H]2O6)cc1` [Naltrexone-3-NB590], the “NanoBRET Fold Response” value by setting is: (ADRA1A, tracer 0.1μM) 1.10; (ADRA1A, tracer 1μM) 0.96.
For `CC(C)N(CC[C@H](c1ccccc1)c1cc(CCNC(=O)CCOCCOCCOCCOCCNC(=O)CCc2ccc3n2[B-](F)(F)[N+]2=C(c4ccc[nH]4)C=CC2=C3)ccc1O)C(C)C` [Tolterodine-2-NB590] the same measures were 0.97 and 0.98.
For `Cc1nc2n(c(=O)c1CCN1CCC(c3noc4cc(F)ccc34)CC1)CCCC2OC(=O)NCCOCCOCCOCCOCCNC(=O)CCc1ccc2n1[B-](F)(F)[N+]1=C(c3ccc[nH]3)C=CC1=C2` (stereo not drawn) [Risperidone-2-NB590] the same measures were 4.86 and 3.45.
As to `O=C(CCOCCOCCOCCOCCNC(=O)CCc1ccc2n1[B-](F)(F)[N+]1=C(c3ccc[nH]3)C=CC1=C2)NCCCN1CCN(C2=Nc3cc(Cl)ccc3Nc3ccccc32)CC1` [Clozapine-a-2-NB590], the “NanoBRET Fold Response” value by setting is: (ADRA1A, 0.1μM tracer) 3.90; (ADRA1A, 1μM tracer) 3.21.
`COc1ccc2[nH]c(-c3ccc(CNC(=O)CCOCCOCCOCCOCCNC(=O)CCc4ccc5n4[B-](F)(F)[N+]4=C(c6ccc[nH]6)C=CC4=C5)cc3)c(CCNC(C)=O)c2n1` [AzomelatoninICO9-2-NB590]: the “NanoBRET Fold Response” value was determined as 1.06 (0.1μM tracer) and 0.94 (1μM tracer).
For the compound `COc1ccccc1N1CCN(CCCCN2C(=O)c3ccc(CNC(=O)CCOCCNC(=O)c4ccc(CNC(=O)CCc5ccc6n5[B-](F)(F)[N+]5=C(c7ccc[nH]7)C=CC5=C6)cc4)cc3C2=O)CC1` [NAN-190-3-NB590], the “NanoBRET Fold Response” value by setting is: (ADRA1A, tracer 0.1μM) 3.94; (ADRA1A, tracer 1μM) 3.91.
For `N#CN=C(NCCCOc1cccc(CN2CCCCC2)c1)NCCNC(=O)CCOCCOCCOCCOCCNC(=O)CCc1ccc2n1[B-](F)(F)[N+]1=C(c3ccc[nH]3)C=CC1=C2` [Aminopotentidine-2-NB590] the same measures were 1.05 and 1.00.
Turning to `CN(C)CCC=C1c2ccccc2CCc2ccc(C(=O)NCCNC(=O)CCOCCOCCOCCOCCNC(=O)CCc3ccc4n3[B-](F)(F)[N+]3=C(c5ccc[nH]5)C=CC3=C4)cc21` [Amitriptyline-b-2-NB590], the “NanoBRET Fold Response” value reads like this: (tracer at 0.1μM, listed as amitriptyline-b-2-NB590) 4.73; (tracer at 1μM, listed as amitriptyline-b-2-NB590) 2.23.
With `COc1ccccc1N1CCN(CCCCN2C(=O)c3ccc(CNC(=O)CCOCCOCCOCCOCCNC(=O)CCc4ccc5n4[B-](F)(F)[N+]4=C(c6ccc[nH]6)C=CC4=C5)cc3C2=O)CC1` [NAN-190-2-NB590], the “NanoBRET Fold Response” value reads like this: (ADRA1A, tracer 0.1μM) 5.18; (ADRA1A, tracer 1μM) 4.33.
Take `O=C(CCOCCOCCOCCOCCNC(=O)CCc1ccc2n1[B-](F)(F)[N+]1=C(c3ccc[nH]3)C=CC1=C2)NCCCN1CCN(C2=Nc3ccccc3Oc3ccc(Cl)cc32)CC1` [Loxapine-a-2-NB590]: the “NanoBRET Fold Response” value reads like this: (ADRA1A, tracer 0.1μM) 3.76; (ADRA1A, tracer 1μM) 3.42.
Take `CN(CCC=C1c2ccccc2CCc2ccccc21)C(=O)CCOCCOCCOCCOCCNC(=O)CCc1ccc2n1[B-](F)(F)[N+]1=C(c3ccc[nH]3)C=CC1=C2` [Amitriptyline-e-2-NB590]: the “NanoBRET Fold Response” value (tracer at 1μM) is 1.32.
Regarding `CCCn1c(=O)c2[nH]c(-c3ccc(OCC(=O)NCCNC(=O)CCOCCNC(=O)c4ccc(CNC(=O)CCc5ccc6n5[B-](F)(F)[N+]5=C(c7ccc[nH]7)C=CC5=C6)cc4)cc3)nc2n(CCC)c1=O` [XAC-3-NB590], the “NanoBRET Fold Response” value stood at 1.10 (ADRA1A, tracer 0.1μM) and 0.94 (ADRA1A, tracer 1μM).
As to `CN(C)CCC=C1c2ccccc2CCc2ccc(C(=O)NCCNC(=O)CCOCCOCCOCCOCCNC(=O)CCc3ccc4n3[B-](F)(F)[N+]3=C(c5ccc[nH]5)C=CC3=C4)cc21` [Amitriptyline-a-2-NB590], the “NanoBRET Fold Response” value reads like this: (tracer at 0.1μM) 1.38; (tracer at 1μM) 2.14.
With `CCOC(=O)c1cc(C#N)c(N2CCC(C(=O)NS(=O)(=O)Cc3ccccc3/C=C/C(=O)NCCNC(=O)CCc3ccc4n3[B-](F)(F)[N+]3=C(c5ccc[nH]5)C=CC3=C4)CC2)nc1C` [AZD1283-1-NB590], the “NanoBRET Fold Response” value (ADRA1A, 0.1μM) is recorded as 1.06 and the “NanoBRET Fold Response” value (ADRA1A, 1μM) is given as 1.06.
